Measurements taken from US9290740B2, “Use of basic fibroblast growth factor in the de-differentiation of animal connective tissue cells” (Worcester Polytechnic Institute, priority 2008, dated 2016).

Tested on: Nanog in CRL-2352 (ATCC) cells
Assay: Effect of valproic acid on FGF2 de-differentiation (Nanog immunocytochemistry on glass coverslips)
Assay type: cell-based, human
Settings: 1.0 μM valproic acid with 4 ng/ml FGF2, glass coverslips, 5% O2, 6 days
Experimental: The effect of valproic acid on FGF2 de-differentiation was also studied. CRL-2352 (ATCC) cells (2000 cells per well in 24-well plates containing sterile 12 mm glass coverslips) were cultured in medium consisting of DMEM:Ham's F12 (60:40, MediaTech) with 10% Fetalclone III (Hyclone, Logan, Utah) and 4 ng/ml FGF2, with and without 1.0 μM valproic acid, in parallel cultures. Cultures were carried out in a 37° C. incubator in a humidified environment of 5% CO2, 5% O2, and 90% N2 for 6 days with medium changed at day 3. Cells were washed with DPBS and fixed with −20° C. methanol for 10 min, washed with PBS and processed for immunocytochemistry.

Question: For `CCCC(CCC)C(=O)O` [valproic acid], which “nuclear staining for Nanog” value is on record?
Answer: increased nuclear staining for Nanog
